Source: the supplement of paper PMC6045584

Tests used:
Assay in all cases: area under dose-response curve of surviving fraction (unscaled, Aref=0) (surviving fraction x log10(nM)); higher = more resistant
Conditions in all cases: exposure time: 5 days; dose range 0.5-1000 nM
FLUOROURACIL = compound: O=c1[nH]cc(F)c(=O)[nH]1 [FLUOROURACIL]
In short: (§1)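 Tumour cell lines in 384-well plates were exposed to eight inhibitor concentrations, from 0.5 to 1000 nM, for five days, and viability was read by CellTiter-Glo luminescence in three screens per line. Signals were normalised to DMSO-only wells, and 3-parameter logistic regression in the drc R package fitted dose-response survival curves to the surviving fractions. Area under the curve is given as the unscaled activity area. That area is taken over log10 dose with Aref = 0.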

SALINOMYCIN = compound: CC[C@@H](C(=O)[C@@H](C)[C@@H](O)[C@H](C)[C@@H]1O[C@@H]([C@@H](CC)C(=O)O)CC[C@@H]1C)[C@H]1O[C@]2(C=C[C@@H](O)[C@]3(CC[C@@](C)([C@H]4CC[C@](O)(CC)[C@H](C)O4)O3)O2)[C@H](C)C[C@@H]1C [SALINOMYCIN]
In short: as §1

[1] = compound: CCN(CC)CCCCNc1ncc2cc(-c3cc(OC)cc(OC)c3)c(NC(=O)NC(C)(C)C)nc2n1
In short: as §1

CCK81 LARGE INTESTINE
area under dose-response curve (FLUOROURACIL): 2.58

G292 BONE
area under dose-response curve (FLUOROURACIL): 3.29
area under dose-response curve (SALINOMYCIN): 2.65
area under dose-response curve [1]: 2.16

HCC38 BREAST
area under dose-response curve (FLUOROURACIL): 2.87
area under dose-response curve (SALINOMYCIN): 2.83

HCC70 BREAST
area under dose-response curve (SALINOMYCIN): 2.56
area under dose-response curve [1]: 3.36

HMLE3 BREAST
area under dose-response curve (SALINOMYCIN): 2.7
area under dose-response curve [1]: 2.61

HMT3552 BREAST
area under dose-response curve (FLUOROURACIL): 3.23

HS578T BREAST
area under dose-response curve (FLUOROURACIL): 2.85
area under dose-response curve (SALINOMYCIN): 2.87
area under dose-response curve [1]: 3.03
